From US20040068002A1, “4-aminobenzopyran derivatives” (priority 2001, published 2004)

Key:
[1] = test system: atrial effective refractory period; experiment: Effects on the effective refractory period (atrial), anesthetized beagles with vagal nerve stimulation; assay type: in vivo; settings: 0.3 mg/kg intravenously, from 5 min after administration, after minus before administration
Experimental: (§1) Effects on the Effective Refractory Period
(§2) Beagles were anesthetized with pentobarbital sodium and, under artificially ventilated condition, thoracotomy was conducted along the median and the pericardium was cut open to expose the heart. ECG was recorded using bipolar electrodes attached to the surface of the right atrial free wall, right atrial auricle, and right ventricular free wall. The vagal nerves were stimulated using an electric stimulation device via Nichrome wires inserted into the bilateral vagal nerves in the neck. The conditions for electric stimulation to the vagal nerves were set such that the RR intervals on ECG were prolonged by about 100 msec compared with those before the stimulation was started.
(§3) Electric current twice as strong as the threshold was used for the electric stimulation to the heart, and premature stimulation S2 was applied after giving 10 serial S1 stimulations at the basic stimulation cyclelength. […]
(§4) For evaluation of drug effects, the atrial and ventricular effective refractory periods were determined before drug administration, then each compound was administrated intravenously at the dose of 0.3 mg/kg, and the atrial and ventricular effective refractory periods were determined from 5 min after the administration. […]

[2] = test system: ventricular effective refractory period; experiment: Effects on the effective refractory period (ventricular), anesthetized beagles with vagal nerve stimulation; assay type: in vivo; settings: 0.3 mg/kg intravenously, from 5 min after administration, after minus before administration
Experimental: as §1, §2, §3, §4

| SMILES | prolongation time in effective refractory period (msec) Atrium [1] | prolongation time in effective refractory period (msec) ventricle [2] |
| --- | --- | --- |
| CCCCCN[C@H]1c2cc(NC(C)=O)c([N+](=O)[O-])cc2OC(C)(C)[C@@H]1O (relative stereo) [Synthesis Example 1, (3R*,4S*)-6-acetylamino-3,4-dihydro-2,2-dimethyl-7-nitro-4-n-pentylamino-2H-1-benzopyran-3-ol] | 40 ms | 5 ms |
| CCCCCN[C@H]1c2cc(N)c([N+](=O)[O-])cc2OC(C)(C)[C@@H]1O (relative stereo) [Synthesis Example 9, Trans-6-amino-3,4-dihydro-2,2-dimethyl-7-nitro-4-n-pentylamino-2H-1-benzopyran-3-ol] | 27 ms | 3 ms |
